From patent publication US10377718B2, “Apelin receptor (APJ) agonists and uses thereof” (Research Triangle Institute, priority 2014, dated 2019)

Columns and labels:
[1] = biological target: T1, apelin receptor (APJ) (Homo sapiens, UniProt P35414); assay: in vitro apelin agonist activity (methods of Giddings et al., Apelin-13 as positive control); type: cell-based; conditions: apelin agonist activity, Giddings et al. method; read-out: agonist activity (EC50)
T1 sequence (P35414 1-380): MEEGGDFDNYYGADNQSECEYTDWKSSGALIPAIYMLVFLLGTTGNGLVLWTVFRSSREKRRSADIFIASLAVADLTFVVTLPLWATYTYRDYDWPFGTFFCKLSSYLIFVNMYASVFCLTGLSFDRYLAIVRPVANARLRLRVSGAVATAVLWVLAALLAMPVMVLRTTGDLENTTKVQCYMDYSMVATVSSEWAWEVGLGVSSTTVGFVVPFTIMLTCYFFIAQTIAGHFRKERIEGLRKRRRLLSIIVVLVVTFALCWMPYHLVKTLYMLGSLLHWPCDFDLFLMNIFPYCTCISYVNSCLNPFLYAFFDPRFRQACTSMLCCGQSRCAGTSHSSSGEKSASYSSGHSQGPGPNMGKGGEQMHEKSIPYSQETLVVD
Text: The compounds above were studied for their in vitro activity as apelin agonists using the methods described by Giddings et al. Giddings et al., 2010 Int J High Thro Screen. 1:39-47, the contents of which are hereby incorporated by reference in its entirety.

[2] = test system: C57BL/6 mice; assay: in vivo blood pressure lowering activity, non-invasive blood pressure and heart rate after IP injection; set-up: Systolic Baseline / Diastolic Baseline: unit not given here; conditions: for Diastolic Baseline / HR Baseline / Mean pressure Baseline / Systolic Baseline: baseline before dosing; for Diastolic % change / HR % change / Mean pressure % change / Systolic % change: postdose vs baseline; for HR Postdose: in bpm (unit assumed); for Diastolic Postdose / Mean pressure Postdose / Systolic Postdose: in mmHg (unit assumed)
Experimental: The compounds were also assayed for blood pressure activity using C57BL/6 mice and the procedure described by Tatemoto et al. The novel peptide apelin lowers blood pressure via a nitric oxide-dependent mechanism. Regul Pept. 2001; 99: 87-92. […] Studies have been published citing reductions in blood pressure occur following peptide apelin administration. Apelin-13 was used as a positive control. Knockout C57BL/6 mice lacking APJ have cardiovascular deficiencies. […] Charo et al. Am J Physiol Heart Circ Physiol. 2009 November 297(5):[…] et al. J Physiol Biochem. 2007 December; 63(4):359-73. Blood pressure measurements in these species of mice have been reported in the literature. […] et al. Am J Physiol Heart Circ Physiol. 2003 February; 284(2):[…]-74. On the first day of the study, 11 animals were treated with apelin-13, 11 with vehicle alone, and 11 as sham controls. The two later groups were used to determine effects (if any) of the vehicle or injection alone on blood pressure (BP). The experiment was conducted as follows: The animals were restrained and a baseline measurement taken for 5 min. Animals were injected and immediately monitored for 15 minutes. The effect of test agents should be apparent within this time. Tatemoto et al. reported that the effects of Apelin-13 were apparent within minutes. Tatemoto et al. 2001 Immediately following dosing, blood pressure (diastolic, systolic and mean pressure) and heart rate for each animal was recorded for up to 15 minutes using a Kent Scientific CODA Non-Invasive Blood Pressure System. […] On day 2-5 a similar protocol was used in increasing doses. The animals were randomized daily in three groups of 11 to receive either of the two experimental compounds by IP injection. […] At the end of the 5-day dosing period, all animals were humanely euthanized. [table]

CCCCNC(=O)C[C@H](CC(C)C)NC(=O)c1cc(-c2c(OC)cccc2OC)n(CC(C)C)n1 [compound 143, (S)-N-(1-(Butylamino)-5-methyl-1-oxohexan-3-yl)-5-(2,6-dimethoxyphenyl)-1-isobutyl-1H-pyrazole-3-carboxamide]
EC50 [1]: < 10 µM | Diastolic Baseline ([2]; Day 2, 1 mg/kg IP): 127 | HR Baseline ([2]; Day 2, 1 mg/kg IP): 706 | Mean pressure Baseline ([2]; Day 2, 1 mg/kg IP): 138 | Systolic Baseline ([2]; Day 2, 1 mg/kg IP): 161 | Diastolic % change ([2]; Day 2, 1 mg/kg IP): 1% | HR % change ([2]; Day 2, 1 mg/kg IP): 3% | Mean pressure % change ([2]; Day 2, 1 mg/kg IP): 0% | Systolic % change ([2]; Day 2, 1 mg/kg IP): −1% | HR Postdose ([2]; Day 2, 1 mg/kg IP): 727 | Diastolic Postdose ([2]; Day 2, 1 mg/kg IP): 129 | Mean pressure Postdose ([2]; Day 2, 1 mg/kg IP): 139 | Systolic Postdose ([2]; Day 2, 1 mg/kg IP): 160 | Diastolic Baseline ([2]; Day 3, 3 mg/kg IP): 132 | HR Baseline ([2]; Day 3, 3 mg/kg IP): 665 | Mean pressure Baseline ([2]; Day 3, 3 mg/kg IP): 142 | Systolic Baseline ([2]; Day 3, 3 mg/kg IP): 163 | Diastolic % change ([2]; Day 3, 3 mg/kg IP): −4% | HR % change ([2]; Day 3, 3 mg/kg IP): 15% | Mean pressure % change ([2]; Day 3, 3 mg/kg IP): −4% | Systolic % change ([2]; Day 3, 3 mg/kg IP): −3% | HR Postdose ([2]; Day 3, 3 mg/kg IP): 763 | Diastolic Postdose ([2]; Day 3, 3 mg/kg IP): 127 | Mean pressure Postdose ([2]; Day 3, 3 mg/kg IP): 137 | Systolic Postdose ([2]; Day 3, 3 mg/kg IP): 158 | Diastolic Baseline ([2]; Day 4, 10 mg/Kg IP): 131.3 | HR Baseline ([2]; Day 4, 10 mg/Kg IP): 669.3 | Mean pressure Baseline ([2]; Day 4, 10 mg/Kg IP): 143 | Systolic Baseline ([2]; Day 4, 10 mg/Kg IP): 167.5 | Diastolic % change ([2]; Day 4, 10 mg/Kg IP): −5% | HR % change ([2]; Day 4, 10 mg/Kg IP): 11% | Mean pressure % change ([2]; Day 4, 10 mg/Kg IP): −6% | Systolic % change ([2]; Day 4, 10 mg/Kg IP): −6% | HR Postdose ([2]; Day 4, 10 mg/Kg IP): 745 | Diastolic Postdose ([2]; Day 4, 10 mg/Kg IP): 124.2 | Mean pressure Postdose ([2]; Day 4, 10 mg/Kg IP): 134.8 | Systolic Postdose ([2]; Day 4, 10 mg/Kg IP): 157.1 | Diastolic Baseline ([2]; Day 5, 30 mg/Kg IP): 130 | HR Baseline ([2]; Day 5, 30 mg/Kg IP): 733.9 | Mean pressure Baseline ([2]; Day 5, 30 mg/Kg IP): 141 | Systolic Baseline ([2]; Day 5, 30 mg/Kg IP): 164.1 | Diastolic % change ([2]; Day 5, 30 mg/Kg IP): −9% | HR % change ([2]; Day 5, 30 mg/Kg IP): −2% | Mean pressure % change ([2]; Day 5, 30 mg/Kg IP): −9% | Systolic % change ([2]; Day 5, 30 mg/Kg IP): −8% | HR Postdose ([2]; Day 5, 30 mg/Kg IP): 722.8 | Diastolic Postdose ([2]; Day 5, 30 mg/Kg IP): 118.8 | Mean pressure Postdose ([2]; Day 5, 30 mg/Kg IP): 128.9 | Systolic Postdose ([2]; Day 5, 30 mg/Kg IP): 150.2

COc1cccc(OC)c1-c1cc(C(=O)N[C@H](CC(=O)NC2CCC2)CC(C)C)nn1CC(C)C [compound 173]
EC50 [1]: < 10 µM | Diastolic Baseline ([2]; Day 2, 1 mg/kg IP): 114 | HR Baseline ([2]; Day 2, 1 mg/kg IP): 681 | Mean pressure Baseline ([2]; Day 2, 1 mg/kg IP): 126 | Systolic Baseline ([2]; Day 2, 1 mg/kg IP): 151 | Diastolic % change ([2]; Day 2, 1 mg/kg IP): 3% | HR % change ([2]; Day 2, 1 mg/kg IP): 5% | Mean pressure % change ([2]; Day 2, 1 mg/kg IP): 1% | Systolic % change ([2]; Day 2, 1 mg/kg IP): −1% | HR Postdose ([2]; Day 2, 1 mg/kg IP): 716 | Diastolic Postdose ([2]; Day 2, 1 mg/kg IP): 118 | Mean pressure Postdose ([2]; Day 2, 1 mg/kg IP): 128 | Systolic Postdose ([2]; Day 2, 1 mg/kg IP): 149 | Diastolic Baseline ([2]; Day 3, 3 mg/kg IP): 127 | HR Baseline ([2]; Day 3, 3 mg/kg IP): 661 | Mean pressure Baseline ([2]; Day 3, 3 mg/kg IP): 136 | Systolic Baseline ([2]; Day 3, 3 mg/kg IP): 156 | Diastolic % change ([2]; Day 3, 3 mg/kg IP): 2% | HR % change ([2]; Day 3, 3 mg/kg IP): 12% | Mean pressure % change ([2]; Day 3, 3 mg/kg IP): 2% | Systolic % change ([2]; Day 3, 3 mg/kg IP): 2% | HR Postdose ([2]; Day 3, 3 mg/kg IP): 738 | Diastolic Postdose ([2]; Day 3, 3 mg/kg IP): 129 | Mean pressure Postdose ([2]; Day 3, 3 mg/kg IP): 139 | Systolic Postdose ([2]; Day 3, 3 mg/kg IP): 159 | Diastolic Baseline ([2]; Day 4, 10 mg/Kg IP): 114.9 | HR Baseline ([2]; Day 4, 10 mg/Kg IP): 682.5 | Mean pressure Baseline ([2]; Day 4, 10 mg/Kg IP): 126.3 | Systolic Baseline ([2]; Day 4, 10 mg/Kg IP): 150.5 | Diastolic % change ([2]; Day 4, 10 mg/Kg IP): 4% | HR % change ([2]; Day 4, 10 mg/Kg IP): 10% | Mean pressure % change ([2]; Day 4, 10 mg/Kg IP): 2% | Systolic % change ([2]; Day 4, 10 mg/Kg IP): 0% | HR Postdose ([2]; Day 4, 10 mg/Kg IP): 749.4 | Diastolic Postdose ([2]; Day 4, 10 mg/Kg IP): 119.3 | Mean pressure Postdose ([2]; Day 4, 10 mg/Kg IP): 129.2 | Systolic Postdose ([2]; Day 4, 10 mg/Kg IP): 150 | Diastolic Baseline ([2]; Day 5, 30 mg/Kg IP): 122.2 | HR Baseline ([2]; Day 5, 30 mg/Kg IP): 701.1 | Mean pressure Baseline ([2]; Day 5, 30 mg/Kg IP): 133 | Systolic Baseline ([2]; Day 5, 30 mg/Kg IP): 155.7 | Diastolic % change ([2]; Day 5, 30 mg/Kg IP): −4% | HR % change ([2]; Day 5, 30 mg/Kg IP): 3% | Mean pressure % change ([2]; Day 5, 30 mg/Kg IP): −4% | Systolic % change ([2]; Day 5, 30 mg/Kg IP): −5% | HR Postdose ([2]; Day 5, 30 mg/Kg IP): 721.7 | Diastolic Postdose ([2]; Day 5, 30 mg/Kg IP): 117.5 | Mean pressure Postdose ([2]; Day 5, 30 mg/Kg IP): 127.4 | Systolic Postdose ([2]; Day 5, 30 mg/Kg IP): 148.2

COc1cccc(OC)c1-c1cc(C(=O)N[C@@H](CCC2CCCCC2)Cc2nnn[nH]2)nn1CC(C)C [compound 265]
EC50 [1]: < 10 µM
